From US5087726A, “Carbamate ACAT inhibitors” (Warner-Lambert Company, priority 1990, dated 1992) come the findings set out here.

The test concerns the target T1, acyl-CoA:cholesterol acyltransferase (ACAT) (Oryctolagus cuniculus, UniProt G1SFD9).
T1 construct: tissue preparation containing rabbit intestinal microsomes; from tissue; host or cells: rabbit intestinal microsomes
T1 sequence (G1SFD9 1-524): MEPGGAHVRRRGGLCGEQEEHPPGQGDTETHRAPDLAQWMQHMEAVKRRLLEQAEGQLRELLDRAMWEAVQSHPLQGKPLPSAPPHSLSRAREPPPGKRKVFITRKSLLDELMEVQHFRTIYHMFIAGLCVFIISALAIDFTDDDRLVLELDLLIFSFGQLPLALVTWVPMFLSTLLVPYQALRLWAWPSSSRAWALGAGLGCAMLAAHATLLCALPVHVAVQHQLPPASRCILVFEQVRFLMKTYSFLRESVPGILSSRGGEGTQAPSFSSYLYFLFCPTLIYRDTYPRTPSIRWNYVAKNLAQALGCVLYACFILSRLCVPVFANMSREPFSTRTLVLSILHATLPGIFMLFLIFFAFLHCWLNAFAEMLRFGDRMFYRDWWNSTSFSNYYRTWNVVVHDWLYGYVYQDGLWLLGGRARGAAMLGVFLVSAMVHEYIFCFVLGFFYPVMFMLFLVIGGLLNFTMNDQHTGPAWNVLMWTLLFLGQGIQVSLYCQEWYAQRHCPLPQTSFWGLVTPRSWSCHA
In words: in vitro ACAT inhibition: radiolabeled cholesterol oleate formed from radiolabeled oleic acid in rabbit intestinal microsomes. The format is biochemical. The following applies: tissue preparation containing rabbit intestinal microsomes; read-out: IC50 value, i.e. the concentration of test compound required to inhibit 50% expression of the enzyme. As for the experimental part: The ability of representative compounds of the present invention to inhibit ACAT was measured using an in vitro test more fully described in Field, F. J. and Salone, R. G., Biochemica et Biophysica 712: 557-570 (1982). The test assesses the ability of a test compound to inhibit the acylation of cholesterol by oleic acid by measuring the amount of radiolabeled cholesterol oleate formed from radiolabeled oleic acid in a tissue preparation containing rabbit intestinal microsomes.

For the compound `CCCCCCCCCCCC(=O)N[C@@H](CNC(=O)Oc1c(C(C)C)cccc1C(C)C)c1ccccc1` [Example 1], the IC50 amounted to 0.51 nM.
